# Results as given in patent US6613536B1, “Synthetic peptides and pharmaceutical compositions comprising them for the treatment of systemic lupus erythematosus” (Yeda Research and Development Co. Ltd., priority 1995, dated 2003).
# Columns and labels:
# BALB/c and SJL mice = test: Clinical manifestations of SLE in immunized mice (WBC, proteinuria, kidney analysis); format: in vivo, mouse; conditions: for W.B.C., white blood cell counts / proteinuria: five months after immunization; for number of white blood cells (in words): in comparison to non-immunized mice or p278-immunized mice
# Description: The erythrocyte sedimentation rate was determined by diluting the heparinized blood in PBS at a ratio of 1:1. The diluted blood was then passed to a microsampling pipette and the sedimentation was measured 6 hours later. White blood cell counts were determined after the hemolysis of heparinized blood. Proteinuria was measured in a semi-quantitative manner, using a Combistix kit (Ames, Stoke Poges, Slough, U.K.). Immunohistology was performed by incubation of fixed frozen cryostat sections with FITC-labeled antibodies to mouse Ig. Staining was visualized via use of a fluorescent microscope.
# BALBtc and SJL mice were immunized with mAb 5G12 or with peptides Ia and IIIa, and five months later were checked by two criteria for manifestation of SLE: white blood cell count (WBC) and proteinuria.
# (i) White blood cell count (WBC): The mice were bled, their blood was diluted 1:10 with 1% (vol/vol) acetic acid in order to eliminate the red blood cells, and white blood cells were counted under a normal light microscope.
# Proteinuria: The urine of the mice was tested using combisticks (Combistix Kit, Ames) for the presence of protein.
# SJL/J and BALB/c mice = test: Anti-nuclear extract (NE) antibodies in sera of immunized mice (ELISA); format: in vivo, mouse
# Description: Five groups of mice were immunized according to Example 2, and their sera were tested for the presence of anti-NE antibodies.
# ELISA was utilized to test the presence of the anti-NE antibodies in the sera of the mice, as follows: Plates (Nunc) were coated with 5 μg/ml of HeLa cells NE for 90 min. Thereafter plates were washed and blocked, and ELISA was continued the next day, as described in Example 2 for anti-DNA antibodies.
# [1] = system: peripheral blood lymphocytes (PBL); test: IL-2 production by PBL of SLE patients and healthy controls; format: cell-based, human; conditions: sample at 24 hr
# Description: PBL from human SLE patients and of the appropriate control donors (2×10^5/well) were cultured in microtiter plates in enriched medium containing 10% pooled AB sera in the presence of the human or mouse monoclonal 16/6 Id antibody, in the presence of peptides of the invention or in the presence of phytohemagglutinin (PHA). The rate of proliferation was evaluated by the incorporation of ^3[H]-thymidine in the cell culture. Non-relevant peptides were used as specificity controls. Antigen and mitogen-stimulated cytokine production was quantitated in the supernatants of the above cultures using either the cytokine-dependent lines or the appropriate pairs of antibodies in ELISA assays. Inhibition of the proliferative responses was performed in vitro by adding increasing doses of the tested peptide analogs into the proliferative culture mixtures.
# PBL were isolated from blood of SLE patients or healthy controls using ficol gradient, and were incubated as in Example 13. A sample of 50 μl was removed 24 hr after the assay was started, and incubated in the presence of IL-2 sensitive cells (CTLD) for 24 hr, after which ^3H-thymidine was added for 16 hr, and the plates were harvested and counted on a beta counter.
# [2] = molecular target: T1, MHC class II products on splenic antigen-presenting cells (APC) (Mus musculus, UniProt P01921+P04228); test: Inhibition of peptide binding to APC by anti-Ia mAb; set-up: concentration or dose not given beside the values; conditions: BALB/c, H-2 d
# T1 construct: Splenic adherent cells (10^6/100 μl/tube) isolated from BALB/c, SJL, C3H.SW or C57BL/6 mice; from tissue; host or cells: mouse spleen adherent cells (BALB/c, SJL, C3H.SW, C57BL/6)
# T1 sequence (P04228 24-256): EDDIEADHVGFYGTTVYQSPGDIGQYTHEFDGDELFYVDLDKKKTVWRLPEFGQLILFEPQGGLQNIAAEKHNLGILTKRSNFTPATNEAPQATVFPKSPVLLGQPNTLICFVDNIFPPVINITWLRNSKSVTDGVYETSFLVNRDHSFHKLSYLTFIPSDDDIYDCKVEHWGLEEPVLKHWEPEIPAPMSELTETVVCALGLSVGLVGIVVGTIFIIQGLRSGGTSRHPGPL
# T1 sequence (P01921 28-265): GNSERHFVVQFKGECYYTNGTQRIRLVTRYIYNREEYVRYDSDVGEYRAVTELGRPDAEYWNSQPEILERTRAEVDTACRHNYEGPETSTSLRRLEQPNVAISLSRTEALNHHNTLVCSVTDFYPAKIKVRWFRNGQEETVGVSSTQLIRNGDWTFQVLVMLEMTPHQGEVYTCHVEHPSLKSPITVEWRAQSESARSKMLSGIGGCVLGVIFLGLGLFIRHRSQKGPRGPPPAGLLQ
# Description: Spleen cells suspended in RPMI 1640 medium containing 10% FCS were incubated in Petri dishes for 60 min at 37° C. Thereafter, non-adherent cells were removed, the plates were washed, and the adherent cells were collected from the plates using a rubber policeman (Costar, Mass., USA). These cells (1×10^6/100 μl/tube) were incubated with the biotinylated peptides in PBS containing 0.1% BSA (high purity grade, Amresco, Ohio, USA) for 16 hr at 37° C., followed by incubation with phycoerythrin (PE)-streptavidin (Jackson ImmunoResearch) for 30 min at 4° C. Thereafter the samples were incubated with biotinylated anti-streptavidin (1:60, Vector Laboratories, Burlingame, Calif.) and for an additional period with PE-streptavidin, all for 30 min at 4° C. The cells were washed twice with cold PBS/BSA solution after each incubation. Thereafter, cells were analyzed by flow cytometry using the FACSort cytometer and CELLQuest software (Beckton-Dickinson, Mountain View, Calif.). […]
# Binding of the CDR-based peptides Ia and IIIa to APC was determined as described in Materials and Methods herein and the results are shown in Table 2. […] The results are shown in Table 3: Inhibition of binding was specific and ranged from 60% to 100%.
# [3] = system: antibodies in sera of SLE patients and healthy controls; test: Antibodies in human sera binding coated peptides or mAb 5G12 (ELISA); conditions: 32 SLE patients in comparison to healthy controls; plates coated 10 μg/ml
# Description: Human SLE patients (32 patients) were bled and their sera were tested by ELISA for their ability to bind the peptides Ia, IIa and IIIa, a control peptide p195-212 (a myasthogenic peptide described in PCT publication No. WO 94/00148) or mAb 5G12.
# Detection of the antibodies was conducted on plates that were coated with 10 μg/ml of peptides Ia, IIa, IIIa or p195-212 or mAb 5G12, in PBS for 2 hr, washed and blocked with 1% ovalbumin in PBS for an additional 2 hr. ELISA was continued as described after blockage in Example 2 above, using goat anti-human IgG polyclonal antibody conjugated to peroxidase.
# [4] = BALB/c mice immunized as in Example 2
# [5] = SJL/J mice immunized as in Example 2
% inhibition of binding to APC ([2]; mAb anti I-A^b (34-5-3)) [%],% inhibition of binding to APC ([2]; mAb anti I-A^d (MKD6)) [%],Substance,protein level in urine (in words) (BALB/c and SJL mice; BALB/c mice),"W.B.C., white blood cell counts (BALB/c and SJL mice; BALB/c mice) [per mm^3]",proteinuria (BALB/c and SJL mice; BALB/c mice) [g/L],protein level in urine (in words) (BALB/c and SJL mice; SJL mice),proteinuria (BALB/c and SJL mice; SJL mice) [g/L],number of white blood cells (in words) (BALB/c and SJL mice),anti-NE antibodies in sera (SJL/J and BALB/c mice; [4]),anti-NE antibodies in sera (SJL/J and BALB/c mice; [5]),"IL-2 production by PBL, actual number of responders ([1]; SLE patients)","IL-2 production by PBL, percentage of responders ([1]; SLE patients) [%]","IL-2 production by PBL, actual number of responders ([1]; healthy controls)","IL-2 production by PBL, percentage of responders ([1]; healthy controls) [%]",levels of serum antibodies that bind the coated peptide or mAb [3],"W.B.C., white blood cell counts (BALB/c and SJL mice; SJL mice) [per mm^3]"
0,76.7,TGYYMQWVKQSPEKSLEWIG [peptide Ia],High levels of protein,3375 ± 350,0.88 ± 0.076,smaller increase in protein level,0.375 ± 0.04,lower number of white blood cells,high levels of anti-NE antibodies,lower levels of anti-NE antibodies,5/32,16,14/25,56,significantly higher levels of antibodies,–
0,100,"YYYCARFLWEPYAMDYWGQGS (YYCARFLWEPYAMDYWGQGS) [peptide IIIa, based on the CDR3 region of the VH chain of mAb 5G12]",–,3325 ± 400,0.30 ± 0.01,–,0.9 ± 0.075,lower number of white blood cells,very low level of anti-NE antibodies,high level of anti-NE antibodies,5/32,16,16/25,64,significantly higher levels of antibodies,3300 ± 1343
